# Measurements reported in ChEMBL document CHEMBL5500332, “Structure-based approaches for the design of 6-aryl-1-(3,4,5-trimethoxyphenyl)-1H-benzo[d][1,2,3]triazoles as tubulin polymerization inhibitors” (Eur J Med Chem, 2024).
# Tests used:
# Format in all cases: functional, cell-based
# SGC-7901 = assay: Antiproliferative activity against human SGC-7901 cells measured after 72 hrs by MTT assay; details: SGC-7901, 72 h
# A549 = assay: Antiproliferative activity against human A549 cells measured after 72 hrs by MTT assay; details: A549, 72 h
# MCF7 = assay: Antiproliferative activity against human MCF7 cells measured after 72 hrs by MTT assay; details: MCF7, 72 h
SMILES,IC50 (SGC-7901) [nM],IC50 (A549) [nM],IC50 (MCF7) [nM]
COc1ccc(-c2ccc3ncn(-c4cc(OC)c(OC)c(OC)c4)c3c2)cc1O,45,210,42
COc1cc(-n2nnc3ccc(-c4ccc(C(F)(F)F)cc4)cc32)cc(OC)c1OC,6600,5070,3390
COc1cc(-n2nnc3ccc(-c4cccc(C)c4)cc32)cc(OC)c1OC,412,2450,212
CCOc1ccc(-c2ccc3nnn(-c4cc(OC)c(OC)c(OC)c4)c3c2)cc1,> 10000,2690,8250
COc1cc(-c2ccc3nnn(-c4cc(OC)c(OC)c(OC)c4)c3c2)cc(OC)c1OC,> 10000,4790,> 10000
COc1cc(-n2nnc3ccc(-c4ccccc4)cc32)cc(OC)c1OC,1820,1980,242
COc1cc(OC)cc(-n2nnc3ccc(-c4ccc(OC)c(O)c4)cc32)c1,1070,6460,726
COc1cc(-n2nnc3ccc(-c4cccc(F)c4)cc32)cc(OC)c1OC,2980,7240,7490
COc1cc(-n2nnc3ccc(-c4ccc(Cl)cc4Cl)cc32)cc(OC)c1OC,2840,> 10000,6570
COc1cc(-n2nnc3ccc(-c4ccc(F)cc4)cc32)cc(OC)c1OC,789,2150,1250
COc1ccccc1-c1ccc2nnn(-c3cc(OC)c(OC)c(OC)c3)c2c1,1970,6500,3270
COc1cc(-n2nnc3ccc(-c4cccc([N+](=O)[O-])c4)cc32)cc(OC)c1OC,6670,1940,3800
COc1cc(-n2nnc3ccc(-c4ccc([N+](=O)[O-])cc4)cc32)cc(OC)c1OC,3170,> 10000,3100
COc1cc(-n2nnc3ccc(-c4ccc(Cl)cc4)cc32)cc(OC)c1OC,1460,3750,1520
COc1cc(-n2nnc3ccc(-c4cccc(O)c4)cc32)cc(OC)c1OC,1200,3530,257
COc1cccc(-c2ccc3nnn(-c4cc(OC)c(OC)c(OC)c4)c3c2)c1,8120,6850,3280
COc1ccc(-c2ccc3nnn(-c4cc(OC)c(OC)c(OC)c4)c3c2)cc1,447,1400,212
COc1cc(-n2nnc3ccc(-c4ccc(C(C)=O)cc4)cc32)cc(OC)c1OC,4850,2570,3090
COc1cc(-n2nnc3ccc(-c4ccc(O)cc4)cc32)cc(OC)c1OC,4240,5110,1300
COc1cc(-n2nnc3ccc(-c4ccccc4Cl)cc32)cc(OC)c1OC,6340,9560,8360
COc1cc(-n2nnc3ccc(-c4ccc(C)cc4F)cc32)cc(OC)c1OC,893,1070,92
COc1cc(-n2nnc3ccc(-c4ccc(C)cc4)cc32)cc(OC)c1OC,529,1400,330
COc1cc(-n2nnc3ccc(-c4cccc(Cl)c4)cc32)cc(OC)c1OC,1480,4500,2280
COc1ccc(-c2ccc3nnn(-c4ccc(OC)c(OC)c4)c3c2)cc1O,188,3930,346
